Patent US20230085307A1, “PYRIDAZINONE COMPOUND AND HERBICIDE” (NISSAN CHEMICAL CORPORATION, priority 2019, published 2023)

Legend:
chickweed = assay: Test Example 4: herbicidal effect by soil treatment (Table 19, symbol P); type: in vivo, common chickweed (Stellaria media); conditions: amount of applied herbicide 320 g/ha
Method in brief: (§1)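 Scoring uses the grading scale of an earlier test, three weeks post-application. Treatment consists of spraying a diluted emulsion formulation across the surface of sterilized diluvial soil in which seeds are buried near 1.5 cm deep; boxes are kept in a greenhouse between 25° C. and 30° C.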

wild oat [1] = assay: Test Example 4: herbicidal effect by soil treatment (Table 19, symbol I); type: in vivo, wild oat (Avena fatua); conditions: amount of applied herbicide 320 g/ha
Method in brief: as §1

wild oat [2] = assay: Test Example 5: herbicidal effect by foliage application, plastic box (Table 20, symbol I); type: in vivo, wild oat (Avena fatua); conditions: for Herbicidal effect by foliage application, I: wild oat: amount of applied herbicide 320 g/ha
Method in brief: (§2)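 Post-emergence foliar test in sterilized diluvial soil. Compound applied as water-diluted emulsion at a predetermined rate to 14-day-old plants; evaluation at three weeks.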

green foxtail [3] = assay: Test Example 5: herbicidal effect by foliage application, plastic box (Table 20, symbol G); type: in vivo, green foxtail (Setaria viridis); conditions: for Herbicidal effect by foliage application, G: green foxtail: amount of applied herbicide 320 g/ha
Method in brief: as §2

lambsquarters [4] = assay: Test Example 4: herbicidal effect by soil treatment (Table 19, symbol O); type: in vivo, lambsquarters (Chenopodium album); conditions: amount of applied herbicide 320 g/ha
Method in brief: as §1

lambsquarters [5] = assay: Test Example 5: herbicidal effect by foliage application, plastic box (Table 20, symbol O); type: in vivo, lambsquarters (Chenopodium album); conditions: for Herbicidal effect by foliage application, O: lambsquarters: amount of applied herbicide 320 g/ha
Method in brief: as §2

persian speedwell = assay: Test Example 5: herbicidal effect by foliage application, plastic box (Table 20, symbol R); type: in vivo, Persian speedwell (Veronica persica); conditions: for Herbicidal effect by foliage application, R: persian speedwell: amount of applied herbicide 320 g/ha
Method in brief: as §2

velvetleaf = assay: Test Example 5: herbicidal effect by foliage application, plastic box (Table 20, symbol M); type: in vivo, velvetleaf (Abutilon theophrasti); conditions: for Herbicidal effect by foliage application, M: velvetleaf: amount of applied herbicide 320 g/ha
Method in brief: as §2

Italian ryegrass = assay: Test Example 4: herbicidal effect by soil treatment (Table 19, symbol K); type: in vivo, Italian ryegrass (Lolium multiflorum); conditions: amount of applied herbicide 320 g/ha
Method in brief: as §1

late watergrass = assay: Test Example 1: herbicidal activity, application before weed generation under submerged conditions (Table 16, symbol A); type: in vivo, late watergrass (Echinochloa oryzicola); conditions: amount of applied herbicide 320 g/ha
Method in brief: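 Alluvial soil was flooded to 4 cm depth, weed seeds were sown mixed and 2.5-leaf rice seedlings were transplanted. On sowing day, the compound's emulsion, diluted in water to a set dose, was applied to the water surface. Plants grew at 25–30 °C and were scored 0–5 after three weeks.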

windgrass [6] = assay: Test Example 5: herbicidal effect by foliage application, plastic box (Table 20, symbol L); type: in vivo, windgrass (Apera spica-venti); conditions: for Herbicidal effect by foliage application, L: windgrass: amount of applied herbicide 320 g/ha
Method in brief: as §2

barnyard grass = assay: Test Example 4: herbicidal effect by soil treatment (Table 19, symbol H); type: in vivo, barnyard grass (Echinochloa crus-galli); conditions: amount of applied herbicide 320 g/ha
Method in brief: as §1

redroot pigweed = assay: Test Example 5: herbicidal effect by foliage application, plastic box (Table 20, symbol N); type: in vivo, redroot pigweed (Amaranthus retroflexus); conditions: for Herbicidal effect by foliage application, N: redroot pigweed: amount of applied herbicide 320 g/ha
Method in brief: as §2

Chinese sprangletop = assay: Test Example 3: herbicidal effect by foliage application, Wagner pot (Table 18, symbol D); type: in vivo, chinese sprangletop (Leptochloa chinensis); conditions: for herbicidal effect on Chinese sprangletop (D): 320 g/ha
Method in brief: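 Plants were sown in alluvial soil held under 0.1–0.5 cm standing water and grown 14 days in a greenhouse at 25–30 °C. An emulsifiable formulation, water-diluted to the set dose, was then sprayed onto the foliage, and effects were scored three weeks later using previously defined criteria.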

Japanese bulrush = assay: Test Example 2: herbicidal activity, application during weed generation under submerged conditions (Table 17, symbol B); type: in vivo, Japanese bulrush (Schoenoplectus juncoides); conditions: for herbicidal effect rating, B: Japanese bulrush: AAH 320 g/ha, application during weed generation, submerged conditions
Method in brief: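 Effect on each weed is rated three weeks post-treatment, using the same scoring criteria as the preceding test. Plants grow from mixed-sown seed in flooded alluvial soil (4 cm water) at 25° C. to 30° C., and are treated at one to two leaves with diluted emulsion dropped onto the water.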

windgrass [7] = assay: Test Example 4: herbicidal effect by soil treatment (Table 19, symbol L); type: in vivo, windgrass (Apera spica-venti); conditions: amount of applied herbicide 320 g/ha
Method in brief: as §1

green foxtail [8] = assay: Test Example 4: herbicidal effect by soil treatment (Table 19, symbol G); type: in vivo, green foxtail (Setaria viridis); conditions: amount of applied herbicide 320 g/ha
Method in brief: as §1

[9] = 320 g/ha, foliage application after 14-day growth, evaluated three weeks after application
[10] = foliage application after 14-day growth, evaluated three weeks after application
[11] = foliage application, 320 g/ha, evaluated 3 weeks after application

SMILES	Herbicidal effect by soil treatment, P: chickweed (chickweed)	Herbicidal effect by soil treatment, I: wild oat (wild oat [1])	Herbicidal effect by soil treatment, O: lambsquarters (lambsquarters [4])	Herbicidal effect by soil treatment, K: Italian ryegrass (Italian ryegrass)	Herbicidal effect, A: late watergrass (late watergrass)	Herbicidal effect by soil treatment, H: barnyard grass (barnyard grass)	herbicidal effect on Chinese sprangletop (D) (Chinese sprangletop)	herbicidal effect rating, B: Japanese bulrush (Japanese bulrush)	Herbicidal effect by soil treatment, L: windgrass (windgrass [7])	Herbicidal effect by soil treatment, G: green foxtail (green foxtail [8])	Herbicidal effect by foliage application, I: wild oat (wild oat [2]; [10])	Herbicidal effect by foliage application, G: green foxtail (green foxtail [3]; [10])	Herbicidal effect by foliage application, O: lambsquarters (lambsquarters [5]; [10])	Herbicidal effect by foliage application, R: persian speedwell (persian speedwell; [10])	Herbicidal effect by foliage application, M: velvetleaf (velvetleaf; [10])	Herbicidal effect by foliage application, L: windgrass (windgrass [6]; [10])	Herbicidal effect by foliage application, N: redroot pigweed (redroot pigweed; [10])	P: chickweed, herbicidal effect grade (chickweed)	I: wild oat, herbicidal effect grade (wild oat [1])	O: lambsquarters, herbicidal effect grade (lambsquarters [4])	further results
Cc1nn(C)c(=O)c(-c2c(-c3ccc(Cl)c(F)c3)sc3c(F)cccc23)c1O [4-054]	4 (Herbicidal rate of 70% or more and less than 90%)	0 (Herbicidal rate of 5% or less (almost no effect))	1 (Herbicidal rate of 5% or more and less than 20%)	0 (Herbicidal rate of 5% or less (almost no effect))	3 (Herbicidal rate of 40% or more and less than 70%)	0 (Herbicidal rate of 5% or less (almost no effect))	0 (Herbicidal rate of 5% or less (almost no effect))	2 (Herbicidal rate of 20% or more and less than 40%)	0 (Herbicidal rate of 5% or less (almost no effect))	0 (Herbicidal rate of 5% or less (almost no effect))	–	–	–	–	–	–	–	–	–	–	herbicidal effect on I: wild oat (evaluation grade 0-5) (wild oat [2]; [9]): 0 (Herbicidal rate of 5% or less (almost no effect)); herbicidal effect on G: green foxtail (evaluation grade 0-5) (green foxtail [3]; [9]): 3 (Herbicidal rate of 40% or more and less than 70%); herbicidal effect on O: lambsquarters (evaluation grade 0-5) (lambsquarters [5]; [9]): 3 (Herbicidal rate of 40% or more and less than 70%); herbicidal effect on R: persian speedwell (evaluation grade 0-5) (persian speedwell; [9]): 5 (Herbicidal rate of 90% or more (almost completely withered)); herbicidal effect on M: velvetleaf (evaluation grade 0-5) (velvetleaf; [9]): 5 (Herbicidal rate of 90% or more (almost completely withered)); herbicidal effect on L: windgrass (evaluation grade 0-5) (windgrass [6]; [9]): 0 (Herbicidal rate of 5% or less (almost no effect)); herbicidal effect on N: redroot pigweed (evaluation grade 0-5) (redroot pigweed; [9]): 5 (Herbicidal rate of 90% or more (almost completely withered))
Cc1nn(C)c(=O)c(-c2c(-c3ccc(Cl)cc3)sc3c(C)cccc23)c1O [4-102]	0 (Herbicidal rate of 5% or less (almost no effect))	0 (Herbicidal rate of 5% or less (almost no effect))	3 (Herbicidal rate of 40% or more and less than 70%)	3 (Herbicidal rate of 40% or more and less than 70%)	4 (Herbicidal rate of 70% or more and less than 90%)	0 (Herbicidal rate of 5% or less (almost no effect))	3 (Herbicidal rate of 40% or more and less than 70%)	0 (Herbicidal rate of 5% or less (almost no effect))	0 (Herbicidal rate of 5% or less (almost no effect))	0 (Herbicidal rate of 5% or less (almost no effect))	0 (Herbicidal rate of 5% or less (almost no effect))	0 (Herbicidal rate of 5% or less (almost no effect))	4 (Herbicidal rate of 70% or more and less than 90%)	5 (Herbicidal rate of 90% or more (almost completely withered))	5 (Herbicidal rate of 90% or more (almost completely withered))	0 (Herbicidal rate of 5% or less (almost no effect))	5 (Herbicidal rate of 90% or more (almost completely withered))	–	–	–	–
CCCC(=O)Oc1c(C)nn(C)c(=O)c1-c1c(-c2ccc(C#N)cc2)sc2cc(F)c(F)cc12 [5-026]	–	–	–	–	3 (Herbicidal rate of 40% or more and less than 70%)	–	4 (Herbicidal rate of 70% or more and less than 90%)	0 (Herbicidal rate of 5% or less (almost no effect))	–	–	1 (Herbicidal rate of 5% or more and less than 20%)	0 (Herbicidal rate of 5% or less (almost no effect))	4 (Herbicidal rate of 70% or more and less than 90%)	4 (Herbicidal rate of 70% or more and less than 90%)	3 (Herbicidal rate of 40% or more and less than 70%)	0 (Herbicidal rate of 5% or less (almost no effect))	2 (Herbicidal rate of 20% or more and less than 40%)	0 (Herbicidal rate of 5% or less (almost no effect))	0 (Herbicidal rate of 5% or less (almost no effect))	4 (Herbicidal rate of 70% or more and less than 90%)	K: Italian ryegrass, herbicidal effect grade (Italian ryegrass): 0 (Herbicidal rate of 5% or less (almost no effect)); H: barnyard grass, herbicidal effect grade (barnyard grass): 0 (Herbicidal rate of 5% or less (almost no effect)); L: windgrass, herbicidal effect grade (windgrass [7]): 0 (Herbicidal rate of 5% or less (almost no effect)); G: green foxtail, herbicidal effect grade (green foxtail [8]): 0 (Herbicidal rate of 5% or less (almost no effect))
Cc1ccc2oc(-c3ccc(OCC(C)C)cc3)c(-c3c(O)c(C)nn(C)c3=O)c2c1 [9-051]	–	–	–	–	5 (Herbicidal rate of 90% or more (almost completely withered))	–	–	–	–	–	–	–	–	–	–	–	–	5 (Herbicidal rate of 90% or more (almost completely withered))	0 (Herbicidal rate of 5% or less (almost no effect))	5 (Herbicidal rate of 90% or more (almost completely withered))	I (wild oat) herbicidal effect grade (wild oat [2]; [11]): 1 (Herbicidal rate of 5% or more and less than 20%); G (green foxtail) herbicidal effect grade (green foxtail [3]; [11]): 5 (Herbicidal rate of 90% or more (almost completely withered)); O (lambsquarters) herbicidal effect grade (lambsquarters [5]; [11]): 5 (Herbicidal rate of 90% or more (almost completely withered)); R (persian speedwell) herbicidal effect grade (persian speedwell; [11]): 5 (Herbicidal rate of 90% or more (almost completely withered)); M (velvetleaf) herbicidal effect grade (velvetleaf; [11]): 5 (Herbicidal rate of 90% or more (almost completely withered)); K: Italian ryegrass, herbicidal effect grade (Italian ryegrass): 5 (Herbicidal rate of 90% or more (almost completely withered)); L (windgrass) herbicidal effect grade (windgrass [6]; [11]): 2 (Herbicidal rate of 20% or more and less than 40%); H: barnyard grass, herbicidal effect grade (barnyard grass): 4 (Herbicidal rate of 70% or more and less than 90%); N (redroot pigweed) herbicidal effect grade (redroot pigweed; [11]): 5 (Herbicidal rate of 90% or more (almost completely withered)); Herbicidal effect on D (Chinese sprangletop), foliage application (Chinese sprangletop; amount of applied herbicide 320 g/ha): 3 (Herbicidal rate of 40% or more and less than 70%); herbicidal effect grade, B: Japanese bulrush (Japanese bulrush; application during weed generation under submerged conditions, amount of applied herbicide 320 g/ha): 4 (Herbicidal rate of 70% or more and less than 90%); L: windgrass, herbicidal effect grade (windgrass [7]): 4 (Herbicidal rate of 70% or more and less than 90%); G: green foxtail, herbicidal effect grade (green foxtail [8]): 5 (Herbicidal rate of 90% or more (almost completely withered))
